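Grown in 96-well plates, cells were treated for 48 hours with each compound at five concentrations. Insufficient inhibition: endpoint recorded as highest concentration tested. The concentration for full growth arrest is given as TGI.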
How the values were obtained:
Experiment in all cases: DTP human tumour cell line panel, 48 h
786-0 renal = test system: 786-0 renal
A498 renal = test system: A498 renal
A549 NSCLC = test system: A549 NSCLC
ACHN renal = test system: ACHN renal
BT-549 breast = test system: BT-549 breast
CAKI-1 renal = test system: CAKI-1 renal
CCRF-CEM leukemia = test system: CCRF-CEM leukemia
COLO 205 colon = test system: COLO 205 colon
DU-145 prostate = test system: DU-145 prostate
EKVX NSCLC = test system: EKVX NSCLC
HCC-2998 colon = test system: HCC-2998 colon
HCT-116 colon = test system: HCT-116 colon
HCT-15 colon = test system: HCT-15 colon
HL-60(TB) leukemia = test system: HL-60(TB) leukemia
HOP-62 NSCLC = test system: HOP-62 NSCLC
HOP-92 NSCLC = test system: HOP-92 NSCLC
HS 578T breast = test system: HS 578T breast
HT29 colon = test system: HT29 colon
IGROV1 ovarian = test system: IGROV1 ovarian
K-562 leukemia = test system: K-562 leukemia
KM12 colon = test system: KM12 colon
LOX IMVI melanoma = test system: LOX IMVI melanoma
M14 melanoma = test system: M14 melanoma
MALME-3M melanoma = test system: MALME-3M melanoma
MCF7 breast = test system: MCF7 breast
MDA-MB-231 breast = test system: MDA-MB-231 breast
MDA-MB-435 = test system: MDA-MB-435
MDA-N = test system: MDA-N
MOLT-4 leukemia = test system: MOLT-4 leukemia
NCI-H226 lung = test system: NCI-H226 lung
NCI-H23 lung = test system: NCI-H23 lung
NCI-H460 lung = test system: NCI-H460 lung
NCI-H522 lung = test system: NCI-H522 lung
NCI/ADR-RES ovarian = test system: NCI/ADR-RES ovarian
OVCAR-3 ovarian = test system: OVCAR-3 ovarian
OVCAR-4 ovarian = test system: OVCAR-4 ovarian
OVCAR-5 ovarian = test system: OVCAR-5 ovarian
OVCAR-8 ovarian = test system: OVCAR-8 ovarian
PC-3 prostate = test system: PC-3 prostate
RPMI-8226 leukemia = test system: RPMI-8226 leukemia
RXF 393 renal = test system: RXF 393 renal
SF-268 CNS = test system: SF-268 CNS
SF-295 CNS = test system: SF-295 CNS
SF-539 CNS = test system: SF-539 CNS
SK-MEL-2 melanoma = test system: SK-MEL-2 melanoma
SK-MEL-28 melanoma = test system: SK-MEL-28 melanoma
SK-MEL-5 melanoma = test system: SK-MEL-5 melanoma
SK-OV-3 ovarian = test system: SK-OV-3 ovarian
SN12C renal = test system: SN12C renal
SNB-19 CNS = test system: SNB-19 CNS
SNB-75 CNS = test system: SNB-75 CNS
SR leukemia = test system: SR leukemia
SW-620 colon = test system: SW-620 colon
T-47D breast = test system: T-47D breast
TK-10 renal = test system: TK-10 renal
U251 CNS = test system: U251 CNS
UACC-257 melanoma = test system: UACC-257 melanoma
UACC-62 melanoma = test system: UACC-62 melanoma
UO-31 renal = test system: UO-31 renal

With `COc1cc(CNC(=O)CCCCCCCCCCSSCCCCCCCCCCC(=O)NCc2ccc(O)c(OC)c2)ccc1O` the TGI (786-0 renal) was over 10 µM, the TGI (A498 renal) was over 10 µM and the TGI (A549 NSCLC) was over 10 µM. The TGI (ACHN renal) was over 10 µM, the TGI (BT-549 breast) was over 10 µM and the TGI (CAKI-1 renal) was over 10 µM. It also gave a TGI (CCRF-CEM leukemia) of over 10 µM, a TGI (COLO 205 colon) of over 10 µM and a TGI (DU-145 prostate) of over 10 µM. The TGI (EKVX NSCLC) was over 10 µM, the TGI (HCC-2998 colon) was over 10 µM and the TGI (HCT-116 colon) was over 10 µM. It also gave a TGI (HCT-15 colon) of over 10 µM, a TGI (HL-60(TB) leukemia) of over 10 µM and a TGI (HOP-62 NSCLC) of over 10 µM. It also gave a TGI (HOP-92 NSCLC) of over 10 µM, a TGI (HS 578T breast) of over 10 µM and a TGI (HT29 colon) of over 10 µM. It also gave a TGI (IGROV1 ovarian) of over 10 µM, a TGI (K-562 leukemia) of over 10 µM and a TGI (KM12 colon) of over 10 µM. The TGI (LOX IMVI melanoma) was over 10 µM, the TGI (M14 melanoma) was over 10 µM and the TGI (MALME-3M melanoma) was over 10 µM. It also gave a TGI (MCF7 breast) of over 10 µM, a TGI (MDA-MB-231 breast) of over 10 µM and a TGI (MDA-MB-435) of over 10 µM. For the same molecule, the TGI (MDA-N) was over 10 µM, the TGI (MOLT-4 leukemia) was over 10 µM and the TGI (NCI-H226 lung) was over 10 µM. For the same molecule, the TGI (NCI-H23 lung) was over 10 µM, the TGI (NCI-H460 lung) was over 10 µM and the TGI (NCI-H522 lung) was over 10 µM. The TGI (NCI/ADR-RES ovarian) was over 10 µM, the TGI (OVCAR-3 ovarian) was over 10 µM and the TGI (OVCAR-4 ovarian) was over 10 µM. It also gave a TGI (OVCAR-5 ovarian) of over 10 µM, a TGI (OVCAR-8 ovarian) of over 10 µM and a TGI (PC-3 prostate) of over 10 µM. The TGI (RPMI-8226 leukemia) was over 10 µM, the TGI (RXF 393 renal) was over 10 µM and the TGI (SF-268 CNS) was over 10 µM. It also gave a TGI (SF-295 CNS) of over 10 µM, a TGI (SF-539 CNS) of over 10 µM and a TGI (SK-MEL-2 melanoma) of over 10 µM. For the same molecule, the TGI (SK-MEL-28 melanoma) was over 10 µM, the TGI (SK-MEL-5 melanoma) was over 10 µM and the TGI (SK-OV-3 ovarian) was over 10 µM. For the same molecule, the TGI (SN12C renal) was over 10 µM, the TGI (SNB-19 CNS) was over 10 µM and the TGI (SNB-75 CNS) was over 10 µM. It also gave a TGI (SR leukemia) of over 10 µM, a TGI (SW-620 colon) of over 10 µM and a TGI (T-47D breast) of over 10 µM. The TGI (TK-10 renal) was over 10 µM, the TGI (U251 CNS) was over 10 µM and the TGI (UACC-257 melanoma) was over 10 µM. The TGI (UACC-62 melanoma) was over 10 µM.
`COc1cc2c(cc1OC)C(=O)/C(=C/c1ccccc1)C2` showed a TGI (786-0 renal) of over 100 µM, a TGI (A498 renal) of 7.24 µM and a TGI (A549 NSCLC) of over 100 µM. For the same molecule, the TGI (ACHN renal) was over 100 µM, the TGI (BT-549 breast) was over 100 µM and the TGI (CAKI-1 renal) was over 100 µM. For the same molecule, the TGI (CCRF-CEM leukemia) was 99.4 µM, the TGI (COLO 205 colon) was over 100 µM and the TGI (DU-145 prostate) was over 100 µM. The TGI (EKVX NSCLC) was over 100 µM, the TGI (HCC-2998 colon) was over 100 µM and the TGI (HCT-116 colon) was over 100 µM. The TGI (HCT-15 colon) was over 100 µM, the TGI (HL-60(TB) leukemia) was 50 µM and the TGI (HOP-62 NSCLC) was over 100 µM. It also gave a TGI (HOP-92 NSCLC) of over 100 µM, a TGI (HS 578T breast) of over 100 µM and a TGI (HT29 colon) of over 100 µM. It also gave a TGI (IGROV1 ovarian) of over 100 µM, a TGI (K-562 leukemia) of over 65.6 µM and a TGI (KM12 colon) of over 100 µM. The TGI (LOX IMVI melanoma) was over 100 µM, the TGI (M14 melanoma) was over 100 µM and the TGI (MALME-3M melanoma) was over 100 µM. The TGI (MCF7 breast) was over 100 µM, the TGI (MDA-MB-231 breast) was over 100 µM and the TGI (MDA-MB-435) was over 100 µM. For the same molecule, the TGI (MDA-N) was over 100 µM, the TGI (MOLT-4 leukemia) was 43.9 µM and the TGI (NCI-H226 lung) was over 100 µM. The TGI (NCI-H23 lung) was over 100 µM, the TGI (NCI-H460 lung) was over 100 µM and the TGI (NCI-H522 lung) was over 100 µM. For the same molecule, the TGI (NCI/ADR-RES ovarian) was over 100 µM, the TGI (OVCAR-3 ovarian) was over 100 µM and the TGI (OVCAR-4 ovarian) was over 100 µM. The TGI (OVCAR-5 ovarian) was over 100 µM, the TGI (OVCAR-8 ovarian) was over 100 µM and the TGI (PC-3 prostate) was over 100 µM. The TGI (RPMI-8226 leukemia) was 71.6 µM, the TGI (RXF 393 renal) was over 100 µM and the TGI (SF-268 CNS) was over 100 µM. The TGI (SF-295 CNS) was over 100 µM, the TGI (SF-539 CNS) was over 100 µM and the TGI (SK-MEL-2 melanoma) was over 100 µM. It also gave a TGI (SK-MEL-28 melanoma) of over 100 µM, a TGI (SK-MEL-5 melanoma) of over 84.1 µM and a TGI (SK-OV-3 ovarian) of over 100 µM. It also gave a TGI (SN12C renal) of over 100 µM, a TGI (SNB-19 CNS) of over 100 µM and a TGI (SNB-75 CNS) of 98.1 µM. The TGI (SR leukemia) was over 100 µM, the TGI (SW-620 colon) was over 100 µM and the TGI (T-47D breast) was over 100 µM. For the same molecule, the TGI (TK-10 renal) was over 100 µM, the TGI (U251 CNS) was over 100 µM and the TGI (UACC-257 melanoma) was over 100 µM. For the same molecule, the TGI (UACC-62 melanoma) was over 67.7 µM and the TGI (UO-31 renal) was over 100 µM.
For `CCCCN1C(=O)C[C@H]2[C@@H]3CCc4cc(OCCN5CCCC5)ccc4[C@H]3CC[C@]2(C)C1=O`, the TGI (786-0 renal) was 9.64 µM, the TGI (A498 renal) was 29.4 µM and the TGI (A549 NSCLC) was 22.5 µM. The TGI (ACHN renal) was 25.5 µM, the TGI (BT-549 breast) was 26.6 µM and the TGI (CAKI-1 renal) was 19.2 µM. The TGI (CCRF-CEM leukemia) was 15 µM, the TGI (COLO 205 colon) was 3.95 µM and the TGI (DU-145 prostate) was 27 µM. For the same molecule, the TGI (EKVX NSCLC) was 30.1 µM, the TGI (HCC-2998 colon) was 15.8 µM and the TGI (HCT-116 colon) was 16.4 µM. The TGI (HCT-15 colon) was 22.4 µM, the TGI (HL-60(TB) leukemia) was over 23.2 µM and the TGI (HOP-62 NSCLC) was 12.2 µM. It also gave a TGI (HOP-92 NSCLC) of 18.3 µM, a TGI (HS 578T breast) of 39.8 µM and a TGI (HT29 colon) of 5.06 µM. It also gave a TGI (IGROV1 ovarian) of 30.7 µM, a TGI (K-562 leukemia) of 7.23 µM and a TGI (KM12 colon) of 21.9 µM. It also gave a TGI (LOX IMVI melanoma) of 10.8 µM, a TGI (M14 melanoma) of 3.92 µM and a TGI (MALME-3M melanoma) of 16.1 µM. It also gave a TGI (MCF7 breast) of 15.6 µM, a TGI (MDA-MB-231 breast) of 15.7 µM and a TGI (MDA-MB-435) of 19.1 µM. For the same molecule, the TGI (MDA-N) was 15.1 µM, the TGI (MOLT-4 leukemia) was 14.3 µM and the TGI (NCI-H226 lung) was 21.4 µM. For the same molecule, the TGI (NCI-H23 lung) was 25.6 µM, the TGI (NCI-H460 lung) was 21.3 µM and the TGI (NCI-H522 lung) was 22.7 µM. It also gave a TGI (NCI/ADR-RES ovarian) of 38 µM, a TGI (OVCAR-3 ovarian) of 23.7 µM and a TGI (OVCAR-4 ovarian) of 27.6 µM. The TGI (OVCAR-5 ovarian) was 24.3 µM, the TGI (OVCAR-8 ovarian) was 30.8 µM and the TGI (PC-3 prostate) was 20.4 µM. It also gave a TGI (RPMI-8226 leukemia) of 9.53 µM, a TGI (RXF 393 renal) of 4.59 µM and a TGI (SF-268 CNS) of 28 µM. The TGI (SF-295 CNS) was 9.63 µM, the TGI (SF-539 CNS) was 21.4 µM and the TGI (SK-MEL-2 melanoma) was 19.2 µM. The TGI (SK-MEL-28 melanoma) was 12 µM, the TGI (SK-MEL-5 melanoma) was 15.7 µM and the TGI (SK-OV-3 ovarian) was 27.4 µM. For the same molecule, the TGI (SN12C renal) was 30.2 µM, the TGI (SNB-19 CNS) was 26.5 µM and the TGI (SNB-75 CNS) was 14 µM. The TGI (SR leukemia) was 23.6 µM, the TGI (SW-620 colon) was 25.1 µM and the TGI (T-47D breast) was 30.4 µM. It also gave a TGI (TK-10 renal) of 28.3 µM, a TGI (U251 CNS) of 19.4 µM and a TGI (UACC-257 melanoma) of 13.4 µM. For the same molecule, the TGI (UACC-62 melanoma) was 10.4 µM and the TGI (UO-31 renal) was 15.6 µM.

Reference: PubChem BioAssay (NCI)
